Data: article PMC8709211, “Improving Membrane Activity and Cargo Delivery Efficacy of a Cell-Penetrating Peptide by Loading with Carboranes” (Pharmaceutics, 2021)

Assays:
HeLa cells [1] = experiment: Cell viability assay (resazurin); assay type: cell-based; settings: 37 °C, serum-free medium, 125 nM–100 µM, relative to untreated cells
Method: In total, 17.000 HeLa cells per well were seeded onto 96-well plates (Sarstedt, Nümbrecht, Germany). After confluency of 80–90% was reached, the growth medium was removed, and cells were incubated with 100 µL of peptide solution of different concentrations (125 nM–100 μM in serum-free medium) for 24 h at 37 °C. For a positive control, cells were treated with 70% EtOH for 10 min. Cells were washed with serum-free medium and incubated with 10% (v/v) resazurin (Sigma-Aldrich, Merck group: Darmstadt, Germany) in serum-free medium for 1.5 h at 37 °C. Cell viability was determined by measurement of the resorufin product at 595 nm (λex = 550 nm) on a Tecan infinite M200 plate reader (Tecan Group AG, Männedorf, Switzerland). Viability was calculated from the fluorescence values of treated cells in relation to untreated cells.

HeLa cells [2] = experiment: Proliferation assay, co-incubation with Daunorubicin; assay type: cell-based; settings: 2 h, washout, 72 h growth, resazurin; for Effect on cytotoxicity of Dau (co-incubation): 1 µM peptide with 100 nM or 1 µM Daunorubicin
Method: In total, 3000 HeLa cells per well were seeded onto 96-well plates (Sarstedt, Nümbrecht, Germany). When a confluency of 30–40% was reached, medium was removed and cells were incubated with peptides and Daunorubicin at different concentrations (1 µM peptide concentration and 100 nM or 1 µM Daunorubicin in serum-free medium) for 2 h at 37 °C. Afterwards, a washout was performed, and cells were washed once with 100 µL of serum-free medium. Then, 200 µL of medium with serum were added and cells were grown for 72 h at 37 °C. As a positive control, cells were treated with 70% EtOH for 10 min. Afterwards, cells were covered with 10% (v/v) resazurin (Sigma-Aldrich, Merck group: Darmstadt, Germany) in serum-free medium for 1.5 h at 37 °C. The cell viability of treated cells was determined relative to that of untreated cells by measurement of the resorufin product at 595 nm (λex = 550 nm) on a Tecan infinite M200 plate reader (Tecan Group AG, Männedorf, Switzerland). Viability was calculated from the fluorescence values of treated cells in relation to untreated cells.

HeLa cells [3] = experiment: Cellular uptake by flow cytometry; assay type: cell-based; settings: 1 µM CF-labeled peptide, serum-free medium, 37 °C; for Cellular uptake into HeLa cells, 30 min: triplicate, n = 3
Method: HeLa cells were seeded onto 24-well plates (Sarstedt, Nümbrecht, Germany, 100,000 cells per well, respectively). After reaching 80–90% confluency, medium was removed, and cells were incubated with 1 µM CF-labeled peptide solution in serum-free medium for either 30 min or 2 h at 37 °C. The peptide solution was removed, cells were washed twice with PBS, and trypsinized for 5 min. Detached cells were resuspended in full medium (phenol red free) and afterwards analyzed using a guava easycyte HT flow cytometer (Merck, Darmstadt, Germany).

[4] = Circular dichroism spectroscopy (alpha-helical content, R-value); assay type: physicochemical; settings: for % of alpha helix, 50% TFE / % of alpha helix, Phosphate Buffer: CD, calculated per ref 31; for % of alpha helix, 50% TFE: 20 µM peptide in 10 mM phosphate buffer (pH 7.0) with 50% TFE (v/v); for R-value, 50% TFE: 20 µM peptide in 10 mM phosphate buffer (pH 7.0) with 50% TFE
Method: Conjugates were dissolved in 10 mM phosphate buffer (pH 7.0), either alone or supplemented with 50% TFE (v/v), to a final concentration of 20 µM. CD spectra of all conjugates were recorded from 180–260 nm (0.5 nm intervals) on a J-715 spectropolarimeter (JASCO, Pfungstadt, Germany) in an N2 atmosphere.
To find out more, we performed CD spectroscopy for all peptides solved either in phosphate buffer or in phosphate buffer supplemented with trifluoroethanol (TFE), respectively. All conjugates and sC18 adopted an alpha-helix, when present in phosphate buffer with TFE (Figure S20). On the other hand, when CB-conjugates were solved in phosphate buffer only (Figure 1C), some of them directly formed distinct secondary structures. […] Taking this observation into account, we concluded that the number of CB moieties actually promoted the formation of alpha-helical structures. This effect might be further explained by the helical wheel projection of each conjugate showing that the hydrophobic face of the peptide was clearly enlarged when three or more CB units were attached (see Figure S21). […]

human red blood cells = experiment: Hemolysis assay; assay type: cell-based; settings: human RBCs 5% (v/v in PBS), 37 °C, up to 25 µM peptide, absorption at 560 nm, normalized to Triton-x-100 control, triplicate, n = 2
Method: Human red blood cells were washed five times with PBS (4 °C, 3000× g, 5 min) and diluted to 5% (v/v in PBS). In total, 100 µL of this solution were transferred into a fresh 96-well plate. In total, 50 µL of peptide solution were added and gently resuspended. Red blood cells were incubated for either 1 or 24 h at 37 °C and 5% CO2, respectively. In total, 50 µL of 10% Triton-x-100 were added 10 min prior to the end of the incubation time and served as a positive control. After incubation, cells were centrifuged (r.t., 2500× g, 3 min). The supernatant was carefully transferred into a fresh 96-well plate and the absorption at 560 nm was measured on a Tecan infinite M200 plate reader (Tecan Group AG, Männedorf, Switzerland). The measured absorption referred to the hemoglobin concentration.
Next, we incubated human red blood cells (RBCs) with different concentrations of CB-sC18 conjugates at 37 °C for 1 or 24 h, respectively. Since their cell membranes are mainly composed of neutral lipids, RBCs serve as an excellent biological model for the lytic activity of a peptide. […] For sC18, this agreed with the detected low activity when in contact with zwitterionic LUVs. […] The same activity profile was observed when incubating peptide conjugates with RBCs for only one hour (Figure S30), whereas the effects started at concentrations higher than 5 µM. […]

HeLa cells [5] = experiment: Transfection with mCherry plasmid; assay type: cell-based; settings: peptide:plasmid 3:1 (250 ng plasmid), 1 µM peptide, 2 h, inspected 72 h after transfection, fluorescence microscopy
Method: HeLa cells were seeded into 8-well plates (ibidi, Gräfelfing, Germany, 8000 cells per well, respectively) and grown to 30–40% confluency. Peptides and mCherry plasmid were co-incubated for 1 h at 37 °C at a ratio of 3:1 in serum-free medium (mCherry plasmid: 250 ng). Afterwards, the medium was removed, and the solution was added to the cells. Additional serum-free medium was added to ensure a final peptide concentration of 1 µM. Cells were incubated for 2 h with the peptides and peptide/plasmid solution at 37 °C, respectively. As a positive control, Lipofectamine 2000 (Invitrogen, Thermo Scientific, Waltham, MA, USA) was used and as a negative control, cells were treated with plasmid only. Afterwards, a washout was performed, and cells were washed once with 150 µL of serum-free medium. In total, 300 µL of medium with serum were added and cells were grown for 72 h at 37 °C. Ten minutes prior to microscopic analysis, 0.6 µL of Hoechst33342 were added. Then, cells were washed twice with 150 µL of serum-free medium. In total, 300 µL of serum-supplemented medium were added and cells analyzed using a BZ-X800E microscope (Keyence, Osaka, Japan).

[6] = CF-leakage assay, zwitterionic LUVs; settings: 1 µM peptide, 25 °C, 90 min; fluorescence, normalized to Triton x-100; duplicate, n = 2
Method: (§1) Large unilamellar vesicles (LUVs) were prepared by dissolving different lipids in CHCl3, to reach the desired compositions (lipids were purchased from Avanti Polar Lipids, Inc., Alabaster, AL, USA). To remove the solvent, the mixture was placed into a round-bottomed flask on ice and the solvent was evaporated under reduced pressure for 20 min at 40 °C and afterwards under vacuum for another 5 min. The dried lipid film was then hydrated with HKS buffer (25 mM HEPES, 150 mM KCl, pH 7.4, 10% sucrose (w/v)), supplemented with 100 mM 5(6)-carboxyfluorescein (CF), and homogenized for 5 min at 45 °C to form liposomes (final concentration: 8 mM). The resulting multilamellar vesicle dispersion underwent 10 freeze/thawing cycles and was passed 21 times through a mini extruder (0.4 µm polycarbonate treck-etch membrane; Avanti Polar Lipids, Inc., Alabaster, AL, USA). External CF was removed by size exclusion chromatography (PD10 column, GE Healthcare, Chicago, IL, USA). Peptides were added to the LUVs and the CF release was monitored by measuring the increased fluorescence intensity on a plate reader (Biotek, Winooski, VT, USA). […]
(§2) Our results thus far inspired us to investigate how the novel CB-conjugates would perform in a lipid environment. […] Both lipid systems were additionally loaded with CF in order to monitor membrane leakage via fluorescence dye outflow.

[7] = CF-leakage assay, negatively charged LUVs; settings: 1 µM peptide, 25 °C, 90 min; fluorescence, normalized to Triton x-100; duplicate, n = 2
Method: as §1, §2

[8] = Critical micelle concentration (CMC) determination by UV-VIS; assay type: physicochemical; settings: peptide in water, 1–200 µM; UV absorbance at 255 nm plotted against logarithm of peptide concentration, intersection point of two lines
Method: Peptide conjugates were dissolved in water and different concentrations (1–200 µM) were prepared. UV-VIS spectra ranging from 200–700 nm were recorded using a 1 cm path length quartz cuvette in a Spectroquant Pharo 300 photometer (Merck, Darmstadt, Germany). The absorbance at 255 nm was plotted against the logarithm of the peptide concentration. The intersection point of two lines was determined as CMC.
Since this effect was obviously dependent on the hydrophobic nature of the conjugates, we were then interested in whether they would also self-assemble and form nanostructures, such as micelles or fibrils. An easy to apply and fast method makes use of changes in spectroscopic properties associated with micelle formation. For this, one measures the UV absorbance at a specific wavelength as a function of the concentration. Because aggregates like micelles and free molecule species contribute to a different extent to the absorbed UV light, an abrupt change of the slope occurs above a certain point. The corresponding concentration is defined as the critical micelle concentration (CMC). We measured the UV-VIS spectra of all CB-sC18 conjugates and observed for all an additional concentration-dependent maximum at 255 nm (Figure 1A,B and Table 2), whereas this maximum was not detected for meta-carborane-1-carboxylic acid (Figure S14) or sC18 alone (Figure S15).
Thus, we hypothesized this maximum as evidence for a possible self-assembly, and by plotting the absorbance at 255 nm against the logarithm of the peptide concentration, we assigned the intersection point as CMC.

[9] = 20 µM peptide in 10 mM phosphate buffer (pH 7.0)
[10] = ratio between the molar ellipticity values at 222 and 208 nm

Substance | Cytotoxicity towards HeLa cells, 24 h (HeLa cells [1]) | Effect on cytotoxicity of Dau (co-incubation) (HeLa cells [2]) | Cellular uptake into HeLa cells, 30 min (HeLa cells [3]) | % of alpha helix, 50% TFE [4] | % of alpha helix, Phosphate Buffer [4, 9] | R-value, 50% TFE [4, 10] | Hemolytic activity towards RBCs, 24 h (human red blood cells) | mCherry pDNA transfection (red fluorescent signal) (HeLa cells [5]) | CF release (leakage) from zwitterionic LUVs [6] | Effect on daunorubicin activity at 100 nM Dau (HeLa cells [2]; 1 µM peptide with 100 nM Dau) | Cellular uptake into HeLa cells, 2 h (HeLa cells [3]; 2 h) | R-value, Phosphate Buffer ([4]; ratio between the molar ellipticity values at 222 and 208 nm, 20 µM peptide in 10 mM phosphate buffer (pH 7.0)) | CF release (leakage) from negatively charged LUVs [7] | CMC [8]
K-GLRKRLRKFRNKIKEK [CB1-sC18, sC18 conjugate bearing one meta-carborane (CB) cluster] | lowest cytotoxic effect | did not alter the cytotoxicity of Dau | internalized nearly to the same extent | 50.68% | 5.02% | 0.85 | did not exhibit any effect | only a weak red signal |  |  |  |  |  | 
KKKK-GLRKRLRKFRNKIKEK [CB4-sC18, sC18 conjugate bearing four meta-carborane clusters] |  | did not alter the cytotoxicity of Dau | highest | 56.30% | 21.68% | 0.98 |  | strong red intracellular signals | highest leakage rate towards both tested model systems | slightly increased | internalized the most | 0.73 | highest leakage rate | 43.45 ± 1.15 µM
